Source: ChEMBL document CHEMBL5053535, “Design, synthesis and biological evaluation of novel aminopyrazole- and 7-azaindole-based Nek1 inhibitors and their effects on zebrafish kidney development” (Bioorg Med Chem Lett, 2021)
≈ marks a conversion by molar mass, not a printed value.

Tests used:
[1] = Toxicity in zebra fish embryos assessed as lethality at 1.5 uM measured after 24 hrs relative to control; format: organism-based, Danio rerio; details: zebrafish, in vivo, read-out: Activity
[2] = species on record: Danio rerio; experiment: Toxicity in zebra fish embryos assessed as phenotype changes at 0.01 to 2.5 uM measured after 96 hrs; format: organism-based; details: zebrafish, in vivo, dose 0.01-2.5 µM
[3] = species on record: Danio rerio; experiment: Toxicity in zebra fish embryos assessed as enlarged yolk sac at 0.1 uM measured after 96 hrs; format: organism-based; details: zebrafish, in vivo
[4] = species on record: Danio rerio; experiment: Toxicity in zebra fish embryos assessed as adverse effects at >0.1 uM measured over 96 hrs; format: organism-based; details: zebrafish, in vivo
[5] = species on record: Danio rerio; experiment: Toxicity in zebra fish embryos assessed as curved tail at 0.1 uM measured after 96 hrs; format: organism-based; details: zebrafish, in vivo
[6] = species on record: Danio rerio; experiment: (§1) Toxicity in wild type zebra fish model of polycystic kidney disease assessed as increase in fluorescence intensity at 0.1 uM incubated for 48 hrs in presence of N-phenyl thiourea further treated with PT-yellow for 20 mins followed by dye washout and incubated in solution containing compound for 96 hrs by fluorescence imaging analysis; format: organism-based; details: zebrafish, in vivo
[7] = Stability of the compound in DMEM measured after 48 hrs by DAD-HPLC method; format: physicochemical; details: read-out: Stability
[8] = species on record: Danio rerio; experiment: as §1, with “minor tubular volume expansion” for “increase in fluorescence intensity”, “2.5” for “0.1”; format: organism-based; details: zebrafish, in vivo
[9] = species on record: Danio rerio; experiment: Toxicity in zebra fish embryos assessed as overall survival at 0.01 to 2.5 uM measured after 96 hrs; format: organism-based; details: zebrafish, in vivo, dose 0.01-2.5 µM
[10] = molecular target: T1, Serine/threonine-protein kinase Chk1 (Homo sapiens) (UniProt O14757); experiment: (§2) Inhibition of human recombinant full length N-terminal His tagged CHK1 expressed in baculovirus infected Sf21 insect cells using CHKtide as substrate assessed as residual activity at 1 uM pretreated for 20 mins followed by [33P]-ATP addition measured after 120 mins by radiometric hotspot kinase assay relative to control; details: time 140.0 min
T1 sequence (whole entry): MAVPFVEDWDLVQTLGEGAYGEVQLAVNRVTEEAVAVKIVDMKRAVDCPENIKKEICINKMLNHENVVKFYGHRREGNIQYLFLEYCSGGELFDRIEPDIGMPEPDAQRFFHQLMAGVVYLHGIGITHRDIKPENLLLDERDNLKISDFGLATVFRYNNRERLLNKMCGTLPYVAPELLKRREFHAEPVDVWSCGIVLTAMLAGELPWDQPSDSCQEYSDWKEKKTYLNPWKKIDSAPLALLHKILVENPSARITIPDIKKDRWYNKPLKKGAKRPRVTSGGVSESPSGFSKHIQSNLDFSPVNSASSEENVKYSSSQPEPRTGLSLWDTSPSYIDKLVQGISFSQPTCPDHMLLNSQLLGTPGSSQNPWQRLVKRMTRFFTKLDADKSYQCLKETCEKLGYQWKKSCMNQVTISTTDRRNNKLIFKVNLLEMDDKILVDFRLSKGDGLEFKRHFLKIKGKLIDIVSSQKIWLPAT

[11] = molecular target: Vascular endothelial growth factor receptor 2 (Homo sapiens) (UniProt P35968); experiment: Inhibition of human recombinant C-terminal His6 tagged VEGFR2 (789 to 1356 residues) expressed in baculovirus infected insect cells assessed as residual activity at 1 uM pretreated for 20 mins followed by [33P]-ATP addition measured after 120 mins by radiometric hotspot kinase assay relative to control; details: time 140.0 min
Sequence of Vascular endothelial growth factor receptor 2 (Homo sapiens) (P35968 whole entry, the tested form may be a part): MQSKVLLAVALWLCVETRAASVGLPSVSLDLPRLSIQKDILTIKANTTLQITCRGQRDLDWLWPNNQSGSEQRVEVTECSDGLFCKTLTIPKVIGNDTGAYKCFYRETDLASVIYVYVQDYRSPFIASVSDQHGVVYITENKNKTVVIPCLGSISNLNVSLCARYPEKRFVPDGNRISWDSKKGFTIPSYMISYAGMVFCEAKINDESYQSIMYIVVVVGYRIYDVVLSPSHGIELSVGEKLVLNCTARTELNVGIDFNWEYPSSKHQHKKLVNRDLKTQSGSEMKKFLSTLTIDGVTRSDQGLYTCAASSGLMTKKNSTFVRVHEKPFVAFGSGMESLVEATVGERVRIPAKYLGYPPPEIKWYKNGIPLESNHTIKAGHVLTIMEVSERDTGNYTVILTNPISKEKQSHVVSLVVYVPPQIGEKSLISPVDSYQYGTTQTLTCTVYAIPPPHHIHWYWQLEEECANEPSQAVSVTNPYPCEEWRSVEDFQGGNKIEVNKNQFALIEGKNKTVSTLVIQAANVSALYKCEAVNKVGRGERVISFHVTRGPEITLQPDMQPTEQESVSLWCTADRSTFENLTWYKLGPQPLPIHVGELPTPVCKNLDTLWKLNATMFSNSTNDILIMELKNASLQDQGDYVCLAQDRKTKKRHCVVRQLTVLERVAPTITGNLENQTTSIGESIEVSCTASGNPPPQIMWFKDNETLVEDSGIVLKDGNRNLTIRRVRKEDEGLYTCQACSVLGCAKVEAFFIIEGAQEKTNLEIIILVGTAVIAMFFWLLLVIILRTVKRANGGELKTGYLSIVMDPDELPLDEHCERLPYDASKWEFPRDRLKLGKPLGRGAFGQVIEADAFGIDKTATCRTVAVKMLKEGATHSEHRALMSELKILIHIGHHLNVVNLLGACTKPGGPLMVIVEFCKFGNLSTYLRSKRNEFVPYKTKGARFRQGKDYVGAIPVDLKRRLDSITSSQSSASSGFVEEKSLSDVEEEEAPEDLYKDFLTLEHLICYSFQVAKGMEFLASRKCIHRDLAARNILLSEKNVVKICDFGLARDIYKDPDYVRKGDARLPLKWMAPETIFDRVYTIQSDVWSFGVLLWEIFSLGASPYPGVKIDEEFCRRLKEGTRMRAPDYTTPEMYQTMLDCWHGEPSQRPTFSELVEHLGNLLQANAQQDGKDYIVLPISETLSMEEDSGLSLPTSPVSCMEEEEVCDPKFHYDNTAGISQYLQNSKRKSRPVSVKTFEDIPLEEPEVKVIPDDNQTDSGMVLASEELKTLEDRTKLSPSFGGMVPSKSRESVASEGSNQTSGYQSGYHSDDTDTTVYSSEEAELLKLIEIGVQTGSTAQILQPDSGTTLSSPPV

[12] = Solubility of the compound in E3 medium with 0.2% DMSO by DAD-HPLC based shake flask method; format: physicochemical
[13] = molecular target: T2, Serine/threonine-protein kinase Nek5 (Homo sapiens) (UniProt Q6P3R8); experiment: Inhibition of human recombinant NEK5 assessed as residual activity at 1 uM pretreated for 20 mins followed by [33P]-ATP addition measured after 120 mins by radiometric hotspot kinase assay relative to control; details: time 140.0 min
T2 sequence (whole entry): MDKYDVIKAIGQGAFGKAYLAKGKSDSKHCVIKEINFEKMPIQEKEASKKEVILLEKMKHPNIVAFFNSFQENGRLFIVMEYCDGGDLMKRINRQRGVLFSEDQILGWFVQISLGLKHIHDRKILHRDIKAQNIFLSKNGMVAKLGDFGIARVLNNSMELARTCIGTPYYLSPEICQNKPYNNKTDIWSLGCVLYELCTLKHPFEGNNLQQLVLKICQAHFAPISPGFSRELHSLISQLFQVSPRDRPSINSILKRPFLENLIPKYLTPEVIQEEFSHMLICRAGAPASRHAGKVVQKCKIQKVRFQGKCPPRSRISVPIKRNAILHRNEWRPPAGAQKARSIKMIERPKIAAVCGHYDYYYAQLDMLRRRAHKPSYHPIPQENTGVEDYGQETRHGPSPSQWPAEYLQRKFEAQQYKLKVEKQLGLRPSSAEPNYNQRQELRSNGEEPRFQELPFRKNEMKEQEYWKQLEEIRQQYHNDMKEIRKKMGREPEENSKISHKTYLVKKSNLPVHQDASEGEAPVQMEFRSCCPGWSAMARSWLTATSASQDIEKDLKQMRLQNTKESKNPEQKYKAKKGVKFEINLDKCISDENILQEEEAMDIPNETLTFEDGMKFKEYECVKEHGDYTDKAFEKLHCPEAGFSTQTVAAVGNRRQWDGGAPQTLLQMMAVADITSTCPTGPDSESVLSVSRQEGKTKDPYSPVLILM

[14] = species on record: Danio rerio; experiment: as §1, with “2.5” for “0.1”; format: organism-based; details: zebrafish, in vivo
[15] = molecular target: Cyclin-dependent kinase 2/cyclin E1 (Homo sapiens) (UniProt P24864+P24941); experiment: as §2, with “length C-terminal His6 tagged CDK2/” for “length”, “GST-tagged Cyclin E” for “His tagged CHK1”, “histone H1” for “CHKtide”; details: time 140.0 min
[16] = molecular target: Wee1-like protein kinase (Homo sapiens) (UniProt P30291); experiment: Inhibition of human recombinant full length WEE1 expressed in insect cells using MBP as substrate assessed as residual activity at 1 uM pretreated for 20 mins followed by [33P]-ATP addition measured after 120 mins by radiometric hotspot kinase assay relative to control; details: time 140.0 min
Sequence of Wee1-like protein kinase (Homo sapiens) (P30291 whole entry, looked up): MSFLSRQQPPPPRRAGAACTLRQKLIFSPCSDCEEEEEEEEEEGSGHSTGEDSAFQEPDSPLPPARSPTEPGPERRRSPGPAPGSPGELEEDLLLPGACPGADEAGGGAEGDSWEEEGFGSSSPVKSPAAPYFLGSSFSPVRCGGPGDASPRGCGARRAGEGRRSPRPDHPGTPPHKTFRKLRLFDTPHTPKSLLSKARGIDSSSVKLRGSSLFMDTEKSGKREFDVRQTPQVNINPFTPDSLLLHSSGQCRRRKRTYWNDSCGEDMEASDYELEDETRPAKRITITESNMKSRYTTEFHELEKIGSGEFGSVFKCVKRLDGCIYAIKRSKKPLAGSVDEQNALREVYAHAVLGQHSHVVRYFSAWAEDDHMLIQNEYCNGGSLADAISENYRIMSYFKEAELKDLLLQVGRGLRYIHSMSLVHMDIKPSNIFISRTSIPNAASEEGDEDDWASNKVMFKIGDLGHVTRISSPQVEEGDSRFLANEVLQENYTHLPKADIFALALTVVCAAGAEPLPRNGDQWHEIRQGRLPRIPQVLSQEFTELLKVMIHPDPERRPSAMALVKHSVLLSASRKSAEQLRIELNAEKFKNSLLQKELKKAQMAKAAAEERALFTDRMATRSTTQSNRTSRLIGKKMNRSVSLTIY

[17] = molecular target: T3, Serine/threonine-protein kinase Nek1 (Homo sapiens, UniProt Q96PY6); experiment: Inhibition of human NEK1 using myelin basic protein as substrate assessed as residual activity in presence of [gamma-33P]-ATP by radiometric hotspot kinase assay relative to control
T3 sequence (Q96PY6 whole entry): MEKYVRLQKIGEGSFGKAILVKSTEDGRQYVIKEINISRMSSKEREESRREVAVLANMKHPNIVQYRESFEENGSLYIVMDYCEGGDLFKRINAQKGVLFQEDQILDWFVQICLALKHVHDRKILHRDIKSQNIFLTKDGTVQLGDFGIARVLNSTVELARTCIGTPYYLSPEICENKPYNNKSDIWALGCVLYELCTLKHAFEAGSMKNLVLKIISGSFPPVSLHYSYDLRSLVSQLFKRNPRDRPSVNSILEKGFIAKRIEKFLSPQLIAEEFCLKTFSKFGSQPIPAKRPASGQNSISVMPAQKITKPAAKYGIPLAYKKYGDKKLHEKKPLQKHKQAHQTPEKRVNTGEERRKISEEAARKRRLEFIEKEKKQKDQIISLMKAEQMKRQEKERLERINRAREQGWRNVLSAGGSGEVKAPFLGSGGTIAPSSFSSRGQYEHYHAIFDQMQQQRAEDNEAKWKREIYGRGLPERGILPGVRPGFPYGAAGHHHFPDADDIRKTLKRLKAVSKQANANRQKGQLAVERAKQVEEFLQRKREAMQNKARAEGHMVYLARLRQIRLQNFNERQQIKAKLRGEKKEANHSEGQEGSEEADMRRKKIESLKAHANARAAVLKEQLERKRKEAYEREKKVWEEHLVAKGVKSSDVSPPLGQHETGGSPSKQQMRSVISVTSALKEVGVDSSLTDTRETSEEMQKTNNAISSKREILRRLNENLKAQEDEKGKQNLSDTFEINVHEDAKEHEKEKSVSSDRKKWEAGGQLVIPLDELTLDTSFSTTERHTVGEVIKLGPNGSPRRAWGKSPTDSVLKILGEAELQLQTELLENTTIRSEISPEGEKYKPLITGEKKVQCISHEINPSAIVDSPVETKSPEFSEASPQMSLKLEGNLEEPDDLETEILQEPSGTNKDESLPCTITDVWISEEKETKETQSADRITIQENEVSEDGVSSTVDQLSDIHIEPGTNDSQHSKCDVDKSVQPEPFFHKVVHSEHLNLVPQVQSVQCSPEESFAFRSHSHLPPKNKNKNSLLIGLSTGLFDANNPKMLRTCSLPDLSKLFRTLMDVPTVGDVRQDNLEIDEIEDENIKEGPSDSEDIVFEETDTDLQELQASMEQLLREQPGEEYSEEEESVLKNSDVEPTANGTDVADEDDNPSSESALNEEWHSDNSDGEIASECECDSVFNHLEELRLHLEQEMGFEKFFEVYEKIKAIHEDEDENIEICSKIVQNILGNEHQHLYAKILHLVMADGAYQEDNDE

[18] = Solubility of the compound in DMEM with 1% DMSO by DAD-HPLC based shake flask method; format: physicochemical
[19] = molecular target: T4, Serine/threonine-protein kinase Nek1 (Homo sapiens) (UniProt Q96PY6); experiment: Inhibition of human NEK1 using myelin basic protein as substrate assessed as residual activity at 1 uM in presence of [gamma-33P]-ATP by radiometric hotspot kinase assay relative to control
T4 sequence (whole entry): T3 sequence (Q96PY6 whole entry)

In the case of `Cc1nc(N)sc1-c1ccnc(Nc2cccc([N+](=O)[O-])c2)n1`, the mortality at 24 h, 1.5 µM [1] is reported as 100%, the Activity [2] is reported as “Non-Toxic” and the Activity [3] is reported as “Toxic”. For the same molecule, the Activity [4] was “Toxic”, the Activity [5] was “Toxic” and the Activity [6] was “Toxic”.
With `COC(=O)c1cccc(-c2cnc3[nH]cc(-c4ccncc4)c3c2)c1` the remaining at 48 h [7] was 88%, the Activity [8] was “Toxic” and the Activity [9] was “Non-Toxic”. For the same molecule, the Activity [10] was 85%, the Activity [11] was 79.4% and the solubility [12] was 30.9 µM (≈ 10.2 µg/mL). The Activity [13] was 58.5%, the Activity [14] was “Toxic” and the Activity [15] was 1.8%. It also gave an Activity [16] of 78.9%, an IC50 [17] of 140 nM and a solubility [18] of 34 µM (≈ 11.2 µg/mL). For the same molecule, the Activity [19] was 13%.
